Experimental data taken from PubChem BioAssay (NCI).
Values joined by “and” are separate entries in the source; they are usually repeats but may differ in a detail not shown here. Identical values can stand only once.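 Interpolation was linear, between the two tested concentrations surrounding the appropriate level; five concentrations were tested over 48 hours in 96-well plates. Abbreviation: GI50, concentration required for 50% inhibition of growth. TGI marks complete inhibition of growth.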

Assays:
Experiment in all cases: NCI tumour cell line growth inhibition, 48 h
[1] = system: SF-295 CNS
[2] = system: TK-10 renal
[3] = system: HOP-62 NSCLC
[4] = system: SK-OV-3 ovarian
[5] = system: DU-145 prostate
[6] = system: SF-539 CNS
[7] = system: SW-620 colon
[8] = system: NCI-H23 lung
[9] = system: A549 NSCLC
[10] = system: NCI-H226 lung
[11] = system: 786-0 renal
[12] = system: SR leukemia
[13] = system: HCT-116 colon
[14] = system: MDA-MB-231 breast
[15] = system: BT-549 breast
[16] = system: T-47D breast
[17] = system: SK-MEL-2 melanoma
[18] = system: OVCAR-5 ovarian
[19] = system: MALME-3M melanoma
[20] = system: MOLT-4 leukemia
[21] = system: MCF7 breast
[22] = system: U251 CNS
[23] = system: UACC-257 melanoma
[24] = system: UACC-62 melanoma
[25] = system: OVCAR-4 ovarian
[26] = system: RXF 393 renal
[27] = system: OVCAR-8 ovarian
[28] = system: SK-MEL-28 melanoma
[29] = system: K-562 leukemia
[30] = system: SN12C renal
[31] = system: HL-60(TB) leukemia
[32] = system: LOX IMVI melanoma
[33] = system: IGROV1 ovarian
[34] = system: RPMI-8226 leukemia
[35] = system: SNB-75 CNS
[36] = system: HS 578T breast
[37] = system: EKVX NSCLC
[38] = system: ACHN renal
[39] = system: OVCAR-3 ovarian
[40] = system: KM12 colon
[41] = system: PC-3 prostate
[42] = system: SK-MEL-5 melanoma
[43] = system: UO-31 renal
[44] = system: NCI-H522 lung
[45] = system: HT29 colon
[46] = system: HCT-15 colon
[47] = system: A498 renal
[48] = system: HOP-92 NSCLC
[49] = system: MDA-MB-435
[50] = system: NCI-H460 lung
[51] = system: M14 melanoma
[52] = system: COLO 205 colon
[53] = system: HCC-2998 colon
[54] = system: CAKI-1 renal
[55] = system: NCI/ADR-RES ovarian
[56] = system: CCRF-CEM leukemia
[57] = system: SNB-19 CNS
[58] = system: SF-268 CNS

What does the source list for `CCOc1ccc2nc3cc(N)ccc3c(N)c2c1`?
GI50 [1]: 2.09 µM and 1.98 µM; TGI [1]: 11.9 µM and 11.4 µM; GI50 [2]: 20.9 µM and 12.7 µM; TGI [2]: 46.8 µM and 34.8 µM; GI50 [3]: 1.49 µM and 1.58 µM; TGI [3]: 6.84 µM and 6.49 µM; GI50 [4]: 2.67 µM and 3.65 µM; TGI [4]: 14.2 µM and 15.6 µM; GI50 [5]: 5.65 µM and 6.17 µM; TGI [5]: 18.3 µM and 19 µM; GI50 [6]: 2.66 µM and 1.79 µM; TGI [6]: 13.6 µM and 6.38 µM; GI50 [7]: 3.1 µM and 3.08 µM; TGI [7]: 16.2 µM and 14.4 µM; GI50 [8]: 2.2 µM and 2.31 µM; TGI [8]: 13.2 µM and 11.3 µM; GI50 [9]: 9.61 µM and 10.9 µM; TGI [9]: 28.6 µM and 26.2 µM; GI50 [10]: 6.49 µM and 2.55 µM; TGI [10]: 24.2 µM and 13.4 µM; GI50 [11]: 2.12 µM and 2.37 µM; TGI [11]: 10.8 µM and 13.1 µM; GI50 [12]: 2.61 µM and 2.8 µM; TGI [12]: 8.36 µM and 8.48 µM; GI50 [13]: 3.62 µM and 3.63 µM; TGI [13]: 15.4 µM and 14.2 µM; GI50 [14]: 10.2 µM and 4.44 µM; TGI [14]: 22.8 µM and 17.6 µM; GI50 [15]: 2.23 µM and 1.8 µM; TGI [15]: 8.28 µM and 4.91 µM; GI50 [16]: 0.336 µM and 0.385 µM; TGI [16]: 1.57 µM and 2.4 µM; GI50 [17]: 2.36 µM and 2.22 µM; TGI [17]: 6.19 µM and 5.86 µM; GI50 [18]: 16.2 µM and 12.8 µM; TGI [18]: 39 µM and 25.6 µM; GI50 [19]: 1.22 µM and 1.54 µM; TGI [19]: 3.23 µM and 3.95 µM; GI50 [20]: 2.99 µM and 3.26 µM; TGI [20]: 12.2 µM and 12.4 µM; GI50 [21]: 2.05 µM and 1.66 µM; TGI [21]: 7.75 µM and 5.5 µM; GI50 [22]: 0.534 µM and 0.476 µM; TGI [22]: 2.49 µM and 2.09 µM; GI50 [23]: 11 µM and 5.67 µM; TGI [23]: 28.6 µM and 21 µM; GI50 [24]: 4.7 µM and 2.56 µM; TGI [24]: 18.5 µM and 12 µM; GI50 [25]: 2.3 µM and 3.38 µM; TGI [25]: 5.45 µM and 13 µM; GI50 [26]: 4.97 µM and 2.38 µM; TGI [26]: 20.3 µM and 14.6 µM; GI50 [27]: 2.68 µM and 2.55 µM; TGI [27]: 15.8 µM and 13.1 µM; GI50 [28]: 4.4 µM and 4.3 µM; TGI [28]: 15.7 µM and 15.9 µM; GI50 [29]: 6.03 µM and 6.26 µM; TGI [29]: 20.2 µM and 25.4 µM; GI50 [30]: 0.661 µM and 0.298 µM; TGI [30]: 6.45 µM and 2.1 µM; GI50 [31]: 19.8 µM and 20.2 µM; TGI [31]: 42.2 µM and 43.7 µM; GI50 [32]: 4.53 µM and 2.95 µM; TGI [32]: 20 µM and 12.4 µM; GI50 [33]: 11.5 µM and 15.3 µM; TGI [33]: 37.3 µM and 45.4 µM; GI50 [34]: 15.4 µM and 13.9 µM; TGI [34]: 43.5 µM and 38.4 µM; GI50 [35]: 2.86 µM and 14.1 µM; TGI [35]: 8.78 µM and 28.4 µM; GI50 [36]: 1.29 µM and 1.03 µM; TGI [36]: 9.46 µM and 4.83 µM; GI50 [37]: 9.76 µM and 7.63 µM; TGI [37]: 36.7 µM and 41.4 µM; GI50 [38]: 7.01 µM and 3.93 µM; TGI [38]: 48.3 µM and 16.6 µM; GI50 [39]: 2 µM and 1.91 µM; TGI [39]: 7.25 µM and 10.5 µM; GI50 [40]: 2.73 µM and 1.06 µM; TGI [40]: 17.1 µM and 12.9 µM; GI50 [41]: 3.85 µM and 2.99 µM; TGI [41]: 16.1 µM and 12.7 µM; GI50 [42]: 3.31 µM and 3.03 µM; TGI [42]: 13.3 µM and 12.8 µM; GI50 [43]: 3.11 µM and 11.6 µM; TGI [43]: 27.7 µM and 62.8 µM; GI50 [44]: 1.8 µM and 1.69 µM; TGI [44]: 4.54 µM and 5.1 µM; GI50 [45]: 5.77 µM and 5.22 µM; TGI [45]: 19.5 µM and 17.9 µM; GI50 [46]: 23.2 µM and 12.1 µM; TGI [46]: > 100 µM and 33.7 µM; GI50 [47]: 2.78 µM and 12.7 µM; TGI [47]: 29.1 µM and 37.5 µM; GI50 [48]: 3.4 µM and 2.96 µM; TGI [48]: 16.4 µM and 11.3 µM; GI50 [49]: 10.6 µM and 7.74 µM; TGI [49]: 24.3 µM and 22.4 µM; GI50 [50]: 3.13 µM and 3.9 µM; TGI [50]: 12.6 µM and 15.7 µM; GI50 [51]: 8.31 µM and 10.7 µM; TGI [51]: 26.3 µM and 23.4 µM; GI50 [52]: 3 µM and 1.25 µM; TGI [52]: 13.4 µM and 4.69 µM; GI50 [53]: 3.24 µM and 1.43 µM; TGI [53]: 13.9 µM and 4.72 µM; GI50 [54]: 36.1 µM and 22.8 µM; TGI [54]: > 100 µM and 76.3 µM; GI50 [55]: 9.69 µM and 24.6 µM; TGI [55]: > 100 µM; GI50 [56]: 3.43 µM and 4.22 µM; TGI [56]: 17.1 µM and 20.9 µM; GI50 [57]: 0.339 µM and 0.574 µM; TGI [57]: 2.04 µM and 5 µM; GI50 [58]: 0.385 µM and 0.324 µM; TGI [58]: 1.79 µM and 1.68 µM

Which results are given for `C=CC(=O)N1CCN([C@@H](CC2CC2)c2ccc([C@H](C)Nc3ncc4c(n3)N(CC)C(=O)OC4)cc2)CC1`?
GI50 [1]: 13 µM; TGI [1]: 26.3 µM; GI50 [2]: 9.02 µM; TGI [2]: 23.1 µM; GI50 [3]: 12.4 µM; TGI [3]: 32.9 µM; GI50 [4]: 14.5 µM; TGI [4]: 30.2 µM; GI50 [5]: 12.7 µM; TGI [5]: 25.4 µM; GI50 [6]: 11.7 µM; TGI [6]: 24.3 µM; GI50 [7]: 14.2 µM; TGI [7]: 31.1 µM; GI50 [9]: 11.4 µM; TGI [9]: 28.7 µM; GI50 [10]: 14.1 µM; TGI [10]: 34.7 µM; GI50 [11]: 11.2 µM; TGI [11]: 25.7 µM; GI50 [12]: 4.05 µM; TGI [12]: 22.7 µM; GI50 [13]: 7.67 µM; TGI [13]: 21.9 µM; GI50 [14]: 12 µM; TGI [14]: 27.4 µM; GI50 [15]: 4.7 µM; TGI [15]: 16.6 µM; GI50 [16]: 14.8 µM; TGI [16]: 61.3 µM; GI50 [17]: 12.6 µM; TGI [17]: 27.4 µM; GI50 [18]: 16.6 µM; TGI [18]: 35.4 µM; GI50 [19]: 15.9 µM; TGI [19]: 30.8 µM; GI50 [20]: 4.51 µM; TGI [20]: 26.4 µM; GI50 [21]: 6.66 µM; TGI [21]: 24.6 µM; GI50 [22]: 11.8 µM; TGI [22]: 26.3 µM; GI50 [23]: 10.9 µM; TGI [23]: 25.5 µM; GI50 [24]: 12.1 µM; TGI [24]: 26.1 µM; GI50 [25]: 12.3 µM; TGI [25]: 28.4 µM; GI50 [26]: 4.62 µM; TGI [26]: 20.9 µM; GI50 [27]: 11.1 µM; TGI [27]: 26.7 µM; GI50 [28]: 16.6 µM; TGI [28]: 30.5 µM; GI50 [29]: 5.34 µM; TGI [29]: 69.5 µM; GI50 [30]: 13.7 µM; TGI [30]: 31.8 µM; GI50 [31]: 2.28 µM; TGI [31]: 12.7 µM; GI50 [32]: 11.1 µM; TGI [32]: 26.6 µM; GI50 [33]: 4.58 µM; TGI [33]: 17.5 µM; GI50 [34]: 4.95 µM; TGI [34]: 24.9 µM; GI50 [35]: 2.06 µM; TGI [35]: 16.7 µM; GI50 [36]: 9.19 µM; TGI [36]: 55.6 µM; GI50 [37]: 14.1 µM; TGI [37]: 27.6 µM; GI50 [38]: 14.5 µM; TGI [38]: 27.9 µM; GI50 [39]: 12 µM; TGI [39]: 26.5 µM; GI50 [40]: 15.1 µM; TGI [40]: 34.6 µM; GI50 [41]: 12 µM; TGI [41]: 31.4 µM; GI50 [42]: 15.4 µM; TGI [42]: 30 µM; GI50 [43]: 10.8 µM; TGI [43]: 26.3 µM; GI50 [44]: 10.2 µM; TGI [44]: 26.1 µM; GI50 [45]: 17.5 µM; TGI [45]: 50.7 µM; GI50 [46]: 10.3 µM; TGI [46]: 25.5 µM; GI50 [47]: 11.2 µM; TGI [47]: 23.6 µM; GI50 [48]: 1.47 µM; TGI [48]: 8.06 µM; GI50 [49]: 11.1 µM; TGI [49]: 23.6 µM; GI50 [50]: 14.2 µM; TGI [50]: 29.7 µM; GI50 [51]: 15.5 µM; TGI [51]: 30.1 µM; GI50 [52]: 16.9 µM; TGI [52]: 36 µM; GI50 [53]: 13 µM; TGI [53]: 28 µM; GI50 [54]: 5.23 µM; TGI [54]: 19 µM; GI50 [55]: 21.5 µM; TGI [55]: > 100 µM; GI50 [56]: 4.29 µM; TGI [56]: 25.2 µM; GI50 [57]: 14.4 µM; TGI [57]: 27.8 µM; GI50 [58]: 11.7 µM; TGI [58]: 28.5 µM
